According to US5030654A, “Glutaramide diuretic agents” (Pfizer Inc., priority 1986, dated 1991):
Like-named read-outs stand apart in the source and are kept apart here.

Columns and labels:
[1] = biological target: T1, neutral endopeptidase E.C.3.4.24.11 (Rattus norvegicus, UniProt P07861); assay: inhibition of the neutral endopeptidase E.C.3.4.24.11 in vitro; format: biochemical
T1 construct: neutral endopeptidase preparation from rat kidney; from tissue; host or cells: rat kidney
T1 sequence (P07861 1-750): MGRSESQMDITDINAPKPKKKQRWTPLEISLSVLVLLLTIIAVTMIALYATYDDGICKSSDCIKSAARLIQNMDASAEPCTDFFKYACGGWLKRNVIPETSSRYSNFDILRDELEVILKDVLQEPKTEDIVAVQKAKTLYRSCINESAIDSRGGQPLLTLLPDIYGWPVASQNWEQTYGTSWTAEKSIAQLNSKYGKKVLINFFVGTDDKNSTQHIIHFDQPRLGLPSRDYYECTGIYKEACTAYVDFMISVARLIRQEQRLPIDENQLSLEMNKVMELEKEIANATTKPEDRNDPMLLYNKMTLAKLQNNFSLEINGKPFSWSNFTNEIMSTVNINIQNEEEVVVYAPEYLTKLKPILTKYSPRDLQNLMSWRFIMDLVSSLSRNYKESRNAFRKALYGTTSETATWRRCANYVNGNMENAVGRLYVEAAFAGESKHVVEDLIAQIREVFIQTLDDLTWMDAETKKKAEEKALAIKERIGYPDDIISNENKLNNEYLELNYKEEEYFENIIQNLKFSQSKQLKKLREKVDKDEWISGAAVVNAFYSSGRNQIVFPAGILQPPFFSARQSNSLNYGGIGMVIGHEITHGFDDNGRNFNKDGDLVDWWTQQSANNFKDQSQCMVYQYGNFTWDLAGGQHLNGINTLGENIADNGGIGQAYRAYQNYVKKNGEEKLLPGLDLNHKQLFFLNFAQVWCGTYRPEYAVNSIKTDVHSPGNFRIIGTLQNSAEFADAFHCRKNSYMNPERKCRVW
Protocol: Activity against neutral endopeptidase E.C.3.4.24.11 is assessed using a procedure based on the assay described by J. T. Gafford, R. A. Skidgel, E. G. Erdos and L. B. Hersh, Biochemistry, 1983, […], 3265-3271. The method involves determining the concentration of compound required to reduce by 50% the rate of release of radiolabelled hippuric acid from hippuryl-L-phenylalanyl-L-arginine by a neutral endopeptidase preparation from rat kidney.
(§1) The activity of the racemate and separated enantiomers of the cis-4-{1-[2-carboxy-3-(2-methoxyethoxy)propyl]-1-cyclopentanecarboxamido}- 1-cyclohexanecarboxylic acid was assessed by measuring their ability to inhibit the neutral endopeptidase E.C.3.4.24.11 in vitro or to induce natriuresis in mice in vivo following the procedures described herein.
The compounds were assessed for their ability to inhibit the neutral endopeptidase E.C.3.4.24.11 following the procedure described herein.

[2] = tested on: male mice (Charles River CDl); assay: natriuresis in mice in vivo (saline loaded conscious mice); set-up: species or system mouse; details: i.v. via tail vein, urine collected for two hours
Protocol: The activity of the compounds as diuretic agents is determined by measuring their ability to increase urine output and sodium ion excretion in saline loaded conscious mice. In this test, male mice (Charles River CDl, 22-28 g) are acclimatised and starved overnight in metabowls. The mice are dosed intravenously via the tail vein, with the test compound dissolved in a volume of saline solution equivalent to 2.5% of body weight. Urine samples are collected each hour for two hours in pre-weighed tubes and analysed for electrolyte concentration. Urine volume and sodium ion concentration from the test animals are compared to a control group which received only saline.
as §1

[3] = in vitro, neutral endopeptidase preparation from rat kidney, racemate and enantiomers (Example 445), read-out: IC50 against E.C.3.4.24.11
[4] = neutral endopeptidase E.C.3.4.24.11, rat kidney preparation (Example 454), read-out: IC50

IC50 [1, 3] [nM]	IC50 [1, 4] [nM]	SMILES	Natriuresis in mouse (i.v.) [2]
–	7.9	CCCCC1CC(NC(=O)C2(C[C@@H](COCCOC)C(=O)O)CCCC2)CCC1C(=O)O (stereo partly drawn) [Example 451, 3-[1-(c-4-Carboxy-t-3-butyl-r-1-carbamoyl)cyclopentyl]-2S-(2-methoxyethoxymethyl)propanoic acid]	–
–	8	CCCCC1CC(NC(=O)C2(CC(CCOC)C(=O)O)CCCC2)CCC1C(=O)O (centres unmarked) [Example 453, 3-[1-(c-4-Carboxy-c-3-butylcyclohexyl-r-1-carbamoyl)cyclopentyl]-2-(2-methoxyethyl)propanoic acid]	–

The remaining lines, values behind:

SMILES	IC50 [1, 3] [nM]	IC50 [1, 4] [nM]	Natriuresis in mouse (i.v.) [2]
COCCOCC(CC1(C(=O)N[C@H]2CC[C@@H](C(=O)O)CC2)CCCC1)C(=O)O (mixture of isomers) [(±) R,S, cis-4-{1-[2-carboxy-3-(2-methoxyethoxy)propyl]-1-cyclopentanecarboxamido}-1-cyclohexanecarboxylic acid]	48	–	active at 3 mg/kg
COCCC(CC1(C(=O)N[C@H]2CC[C@@H](C(=O)O)CC2)CCCC1)C(=O)O (relative stereo) [Example 217, 3-{1-[(cis-4-Carboxy-cyclohexyl)carbamoyl]cyclopentyl}-2-(2-methoxyethyl)propanoic acid]	–	50	–
CCCCC1CC(NC(=O)C2(C[C@@H](COCCOC)C(=O)O)CCCC2)CCC1C(=O)O (single isomer, unassigned) [Example 449 isomer B, 3-[1-(c-4-Carboxy-c-3-butylcyclohexyl-r-1-carbamoyl)cyclopentyl]-2S-(2-methoxyethoxymethyl)propanoic acid]	–	5.6	–
CCCCC1CC(NC(=O)C2(C[C@@H](COCCOC)C(=O)O)CCCC2)CCC1C(=O)O (single isomer, unassigned; isomer a) [Example 449 isomer A, 3-[1-(c-4-Carboxy-c-3-butylcyclohexyl-r-1-carbamoyl)cyclopentyl]-2S-(2-methoxyethoxymethyl)propanoic acid]	–	3.6	–
COCCOC[C@H](CC1(C(=O)N[C@H]2CC[C@@H](C(=O)O)CC2)CCCC1)C(=O)O [(+) S, (S)-cis-4-{1-[2-Carboxy-3-(2-methoxyethoxy)propyl]-1-cyclopentanecarboxamido}-1-cyclohexanecarboxylic acid]	39	–	active at 1.5 mg/kg
COCCOC[C@@H](CC1(C(=O)N[C@H]2CC[C@@H](C(=O)O)CC2)CCCC1)C(=O)O [(-) R, cis-4-{1-[2-carboxy-3-(2-methoxyethoxy)propyl]-1-cyclopentanecarboxamido}-1-cyclohexanecarboxylic acid]	< 1000	–	inactive at 3 mg/kg
